Measurements as given in BindingDB's records for doi:10.1021/jm049513x (University of Bonn, 2005).

Assay: Percent inhibition of [3H]PSB-11 binding to adenosine A3 receptor at 10 uM

## CCCn1c(=O)c2nc(C3CC(C)(C)N([O])C(C)(C)C3)[nH]c2n(CCC)c1=O
  Ki: 45 nM
